According to patent publication US5126057A, “Disinfecting with N,N'-dihaloimidazolidin-4-ones” (Auburn Research Foundation, priority 1991, dated 1992):
Each block holds one compound with its values, some of them ahead of it.

Key:
Type in all cases: cell-based
[1] = Prevention of the growth of algae in water by Compound 1; conditions: algal aquarium, pH 6.8, start 6.14 mg per liter, read-out: Percent Total Potential Positive Chlorine Remaining
Protocol: (§1) Two 10 gallon aquariums were each filled with 35 liters of Bristol's solution at pH 6.8 as described in example 16. To aquarium A was added 6.14 milligrams per liter total potential positive chlorine from 0.638 grams of 1,3-dichloro-2,2,5,5-tetramethylimidazolidin-4-one (Compound 1) as prepared in example 1. Aquarium B was used as a control with no halogenated compound added. Then 5 milliliters of an inoculum containing the algae Oscillatoria lutea, Anabaena cylindrica, and Chlorella pyrenoidosa with an absorbance of 0.14 at 750 nanometers was added to each aquarium. Constant aeration and illumination as described in example 16 were provided throughout the experiment. The laboratory temperature varied between 21° and 24° C. during the course of the experiment. Both aquariums were sampled periodically such that the absorption at 750 nanometers could be measured with a Milton Roy Spectronic 301 spectrophotometer. Aquarium A was also sampled for total potential positive chlorine using standard iodometric titration.

[2] = tested on: Oscillatoria lutea, Anabaena cylindrica, and Chlorella pyrenoidosa; test: as above
Protocol: as §1

[3] = tested on: Oscillatoria lutea, Anabaena cylindrica, and Chlorella pyrenoidosa; test: Algastatic effect on heavy algal growth in aquariums; conditions: for regrowth of algae (in words): after total elapsed time of 19 days, all titratable chlorine disappeared; for Percent Total Potential Positive Chlorine Remaining: algal aquarium; for algastatic / algacidal effect (in words): extended periods, water containing heavy algal growth; for decoloration / bleaching of algae (in words): within 2 days for Cpd 1 (9.9 mg per liter Cl+), Cpd 3 at 4.9 mg per liter
Source text: Two 10 gallon aquariums each containing 35 liters of Bristol's solution (described by R. C. Starr in the article "The Culture Collection of Algae at the University of Texas", J. Phycology, 14, 47 (1978)) at pH 6.8 were inoculated with a mixture of three species of algae; Oscillatoria lutea, Anabaena cylindrica, and Chlorella pyrenoidosa. The 2 aquariums were continually aerated and each illuminated by a 20 watt Gro-lux lamp placed 15 centimeters from the side of the aquarium. The experiment was conducted at ambient temperature which ranged between 21° and 24° C.
After a 34 day growth period the heavy algal cell density was measured by direct counts using a hemacytometer. The cell density in aquarium A at this time was 2.2×10^7 cells per milliliter, while that in aquarium B was 6.6×10^6 cells per milliliter. The absorbances of the two solutions at 750 nanometers were also measured at that time and found to be 0.273 for aquarium A and 0.112 for aquarium B. The absorbance at 750 nanometers has been employed as an index of algal chlorophyll concentration ("Standard methods for the Examination of Water and Wastewater", 16th edition, American Public Health Association, Washington, D.C., 1985, p. 1070). Then a solution of 1.042 grams of 1,3-dichloro-2,2,5,5-tetramethylimidazolidin-4-one (Compound 1) as prepared in example 3 in 500 milliliters of demand-free water (DFW) was added to aquarium A resulting in an initial potential positive chlorine concentration of 9.9 milligrams per liter in that aquarium. Similarly a solution of 0.872 gram of 1-chloro-2,2,5,5-tetramethylimidazolidin-4-one (Compound 3) as prepared in example 6 in 500 milliliters of DFW was added to aquarium B resulting in an initial potential positive chlorine concentration of 4.9 milligrams per liter in that aquarium. The aquariums were sampled periodically and analyzed for algal growth by means of absorbance measurements at 750 nanometers using a Milton Roy Spectronic 301 spectrophotometer and for total potential positive chlorine concentration using standard iodometric titration. […] Following the loss of all total potential positive chlorine from the aquariums, second additions of 0.87 grams of Compound 3 and of 1.042 grams of Compound 1 were made to aquariums B and A, respectively.

[4] = day 0, initial 9.9 (Cpd 1) or 4.9 (Cpd 3) mg per liter
[5] = day 6 (then additional 0.87 grams of Cpd 3 added), 8640 min
[6] = day 10 (then additional 1.042 grams of Cpd 1 added), 14400 min
[7] = day 0 (before addition), initial Cl+ 9.9 (Cpd 1) or 4.9 (Cpd 3) mg per liter
[8] = day 1, initial Cl+ 9.9 (Cpd 1) or 4.9 (Cpd 3) mg per liter
[9] = day 3, initial Cl+ 9.9 (Cpd 1) or 4.9 (Cpd 3) mg per liter
[10] = day 8, second addition of Cpd 3 at day 6
[11] = day 10, second addition of Cpd 3 at day 6, of Cpd 1 at day 10
[12] = day 19, after second additions, no titratable chlorine left

remaining at 24 h ([1]; day 1): 70.1%
remaining at 96 h ([1]; day 4): 53.4%
remaining at 120 h ([1]; day 5): 52.1%
remaining at 144 h ([1]; day 6): 51%
remaining at 168 h ([1]; day 7): 49.5%
remaining at 192 h ([1]; day 8): 48.9%
remaining at 264 h ([1]; day 11): 45.8%
remaining at 288 h ([1]; day 12): 45.6%
remaining at 312 h ([1]; day 13): 44.8%
remaining at 336 h ([1]; day 14): 43.3%
remaining at 360 h ([1]; day 15): 44.8%
remaining at 432 h ([1]; day 18): 41.9%
Percent Total Potential Positive Chlorine Remaining ([2]; start 6.14 mg per liter, day 0): 100.0%
Percent Total Potential Positive Chlorine Remaining [3, 4]: 100.0%
Percent Total Potential Positive Chlorine Remaining ([3]; day 1): 82.9%
Percent Total Potential Positive Chlorine Remaining ([3]; day 3): 44.4%
Percent Total Potential Positive Chlorine Remaining [3, 5]: 13.8%
Percent Total Potential Positive Chlorine Remaining ([3]; day 7): 7.0%
Percent Total Potential Positive Chlorine Remaining ([3]; day 8): 3.4%
Percent Total Potential Positive Chlorine Remaining [3, 6]: 0.0%
Percent Total Potential Positive Chlorine Remaining ([3]; day 16): 34.7%
SMILES: CC1(C)C(=O)N(Cl)C(C)(C)N1Cl [Compound 1, 1,3-dichloro-2,2,5,5-tetramethylimidazolidin-4-one]
green turbid tint (in words) ([2]; 6.14 mg per liter Cl+, 18 day experiment): did not develop such a color at any time during the 18 day experiment
A750 (Absorbance at 750 Nanometers) ([2]; 6.14 mg per liter Cl+, day 7): 0.002
A750 (Absorbance at 750 Nanometers) ([2]; 6.14 mg per liter Cl+, day 11): 0.0
A750 (Absorbance at 750 Nanometers) ([2]; 6.14 mg per liter Cl+, day 12): 0.001
A750 (Absorbance at 750 Nanometers) ([2]; 6.14 mg per liter Cl+, day 13): 0.0
A750 (Absorbance at 750 Nanometers) ([2]; 6.14 mg per liter Cl+, day 14): 0.001
A750 (Absorbance at 750 Nanometers) ([2]; 6.14 mg per liter Cl+, day 15): 0.0
A750 (Absorbance at 750 Nanometers) ([2]; 6.14 mg per liter Cl+, day 18): 0.0
prevention of the growth of algae (in words) ([2]; as long as a measurable amount of the compound is present): effective at preventing the growth of algae in water
time to noticeable loss of green coloration ([3]; Cpd 1 at 9.9 mg per liter Cl+): ≤ 4 h
regrowth of algae (in words) [3]: the algae began to grow again
A750 (Absorbance at 750 Nanometers) [3, 7]: 0.273
A750 (Absorbance at 750 Nanometers) [3, 8]: 0.064
A750 (Absorbance at 750 Nanometers) [3, 9]: 0.081
A750 (Absorbance at 750 Nanometers) [3, 10]: 0.058
A750 (Absorbance at 750 Nanometers) [3, 11]: 0.038
A750 (Absorbance at 750 Nanometers) ([3]; day 16, after second additions): 0.020
A750 (Absorbance at 750 Nanometers) [3, 12]: 0.055
algastatic / algacidal effect (in words) [3]: algastatic, but not algacidal
decoloration / bleaching of algae (in words) [3]: only white turbidity resulting from the bleaching of the algae

Percent Total Potential Positive Chlorine Remaining [3, 4]: 100.0%
Percent Total Potential Positive Chlorine Remaining ([3]; day 1): 71.8%
Percent Total Potential Positive Chlorine Remaining ([3]; day 3): 31.0%
Percent Total Potential Positive Chlorine Remaining [3, 5]: 0.0%
Percent Total Potential Positive Chlorine Remaining ([3]; day 7): 77.3%
Percent Total Potential Positive Chlorine Remaining ([3]; day 8): 47.6%
Percent Total Potential Positive Chlorine Remaining [3, 6]: 17.3%
Percent Total Potential Positive Chlorine Remaining ([3]; day 16): 0.0%
SMILES: CC1(C)NC(=O)C(C)(C)N1Cl [Compound 3, 1-chloro-2,2,5,5-tetramethylimidazolidin-4-one]
regrowth of algae (in words) [3]: the algae began to grow again
A750 (Absorbance at 750 Nanometers) [3, 7]: 0.112
A750 (Absorbance at 750 Nanometers) [3, 8]: 0.063
A750 (Absorbance at 750 Nanometers) [3, 9]: 0.066
A750 (Absorbance at 750 Nanometers) [3, 10]: 0.021
A750 (Absorbance at 750 Nanometers) [3, 11]: 0.012
A750 (Absorbance at 750 Nanometers) ([3]; day 16, after second additions): 0.007
A750 (Absorbance at 750 Nanometers) [3, 12]: 0.010
algastatic / algacidal effect (in words) [3]: algastatic, but not algacidal
decoloration / bleaching of algae (in words) [3]: a longer time period for decoloration
